Molecules are shown by their SMILES. Counter-ions that a name gives are not always drawn.

Data set [1] in a line: Compressibility for dosage form preparation (e.g. tablets). The class given is physicochemical.
Data set [2] can be described thus: Polymorphic stability following grinding and tablet punching. It counts as physicochemical.

For the molecule `C[C@H](CSC(=O)c1ccccc1)C(=O)N1C[C@@H](Sc2ccccc2)C[C@H]1C(=O)O` [(4S)-1-[(2S)-3-(benzoylthio)-2-methylpropionyl]-4-(phenylthio)-L-proline calcium salt], the compressibility result in data set [1] is given as “excellent compressibility”. Besides, the “stability (changes in polymorphic form)” value in data set [2] was “no changes in polymorphic form”.
